Like-named read-outs stand apart in the source and are kept apart here.

By IC50 is commonly meant the concentration at which inhibition is half-maximal.

The target of this assay is T1, integrin αvβ1 (Homo sapiens, UniProt P05556+P06756).
T1 construct: HEK‐293 cells, which naturally express this integrin; endogenous in cells; host or cells: HEK-293
Nature of the assay: integrin αvβ1-mediated attachment of HEK-293 cells to TGFβ-1 latency-associated peptide. The conditions noted are these: mean and SD, at least 3 independent assays, LAP ligand. It is filed as cell-based. The method, then: The RGD peptidomimetic CWHM‐12 was synthesized as described in detail previously (Henderson et al., 2013). A close structural analog of this compound with improved oral bioavailability, CWHM‐680, was also synthesized at Saint Louis University. Potency for the compounds in blocking cell attachment mediated by integrins αvβ3, αvβ5, and αvβ6 was measured as previously described (Henderson et al., 2013). Potency for blocking cell attachment mediated by integrins αvβ1, αvβ8, and α8β1 was measured using modifications of this method which are briefly summarized as follows: To assess CWHM‐12 and CWHM‐680 effects on cellular αvβ1 function, we varied its concentration in an assay measuring binding of HEK‐293 cells, which naturally express this integrin (Nagarajan et al., 2007), to the surface of 96‐well plates coated with purified recombinant human TGFβ‐1 latency‐associated peptide (R&D Systems). To assess the effect on cellular αvβ8 function, we performed the assay with the same LAP ligand but with HEK‐293 cells which had been stably transfected to overexpress this integrin. To assess the effect on cellular α8β1 function, we performed the assay using HEK‐293 cells, which had been stably transfected to overexpress this integrin and used purified recombinant mouse nephronectin as the immobilized ligand (R&D Systems). […]

T1 sequence (P06756 31-889 limits assumed): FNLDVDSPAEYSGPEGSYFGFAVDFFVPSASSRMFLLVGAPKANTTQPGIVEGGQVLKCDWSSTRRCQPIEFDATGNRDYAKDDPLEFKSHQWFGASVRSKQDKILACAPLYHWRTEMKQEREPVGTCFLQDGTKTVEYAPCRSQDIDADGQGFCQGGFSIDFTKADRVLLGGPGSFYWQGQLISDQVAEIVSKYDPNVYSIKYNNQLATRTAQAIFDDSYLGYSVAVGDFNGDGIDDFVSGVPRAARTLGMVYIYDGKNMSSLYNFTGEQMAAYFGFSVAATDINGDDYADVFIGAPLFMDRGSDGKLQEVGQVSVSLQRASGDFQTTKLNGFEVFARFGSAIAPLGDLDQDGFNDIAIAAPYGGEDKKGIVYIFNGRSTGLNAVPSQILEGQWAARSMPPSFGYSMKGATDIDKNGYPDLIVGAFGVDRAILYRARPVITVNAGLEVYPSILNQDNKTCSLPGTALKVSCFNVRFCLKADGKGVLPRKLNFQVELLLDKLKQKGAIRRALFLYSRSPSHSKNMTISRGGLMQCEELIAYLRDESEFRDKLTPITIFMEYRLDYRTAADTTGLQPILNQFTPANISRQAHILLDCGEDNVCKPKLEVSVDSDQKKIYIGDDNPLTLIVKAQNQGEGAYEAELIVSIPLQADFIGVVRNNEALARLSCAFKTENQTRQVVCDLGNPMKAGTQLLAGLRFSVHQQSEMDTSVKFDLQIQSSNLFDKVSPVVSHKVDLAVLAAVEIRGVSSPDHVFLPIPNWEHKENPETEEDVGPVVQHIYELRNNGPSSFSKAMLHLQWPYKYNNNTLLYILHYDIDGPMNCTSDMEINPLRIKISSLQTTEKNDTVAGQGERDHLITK
T1 sequence (P06756 891-1048 partner limits assumed): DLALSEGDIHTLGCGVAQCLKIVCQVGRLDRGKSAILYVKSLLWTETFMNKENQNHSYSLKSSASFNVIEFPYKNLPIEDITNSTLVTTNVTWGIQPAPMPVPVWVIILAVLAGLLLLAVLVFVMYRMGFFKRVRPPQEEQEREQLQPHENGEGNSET
T1 sequence (P05556 21-798): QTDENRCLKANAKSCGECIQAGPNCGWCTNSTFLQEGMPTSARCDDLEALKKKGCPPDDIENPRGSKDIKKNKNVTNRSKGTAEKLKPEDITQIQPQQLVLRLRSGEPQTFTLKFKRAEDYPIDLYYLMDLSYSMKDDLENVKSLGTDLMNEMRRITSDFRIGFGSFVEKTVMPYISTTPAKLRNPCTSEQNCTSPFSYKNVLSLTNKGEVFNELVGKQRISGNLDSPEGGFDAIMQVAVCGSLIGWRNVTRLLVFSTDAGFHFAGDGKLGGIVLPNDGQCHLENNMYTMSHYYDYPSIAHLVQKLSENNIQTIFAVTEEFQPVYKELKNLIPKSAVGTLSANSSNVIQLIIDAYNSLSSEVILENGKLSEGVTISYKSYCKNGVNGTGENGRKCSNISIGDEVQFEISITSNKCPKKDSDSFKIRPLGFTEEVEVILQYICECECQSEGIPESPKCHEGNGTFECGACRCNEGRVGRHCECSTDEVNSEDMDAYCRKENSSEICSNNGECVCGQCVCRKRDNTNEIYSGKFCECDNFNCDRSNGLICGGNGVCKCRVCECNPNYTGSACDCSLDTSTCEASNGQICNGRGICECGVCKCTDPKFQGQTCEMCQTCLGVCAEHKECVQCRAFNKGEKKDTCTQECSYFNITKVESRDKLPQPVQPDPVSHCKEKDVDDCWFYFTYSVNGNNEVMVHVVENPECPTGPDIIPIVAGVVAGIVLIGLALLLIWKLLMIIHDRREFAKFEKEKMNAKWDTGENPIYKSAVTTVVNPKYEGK

As for `CC(C)(C)c1cc(Br)cc([C@H](CC(=O)O)NC(=O)CNC(=O)c2cc(O)cc(NC3=NCC(O)CN3)c2)c1` (some centres unmarked) [CWHM‐12], the IC50 (listed as CWHM−12, read-out: IC50, inhibition of αvβ1-mediated cell attachment) was 290 ± 140 pM and the IC50 (read-out: IC50, inhibition of αvβ1-mediated cell attachment) is < 1000 pM.

For the origin of these results see article PMC7153038, “Pharmacologic inhibition of RGD‐binding integrins ameliorates fibrosis and improves function following kidney injury” (Physiological Reports, 2020).
